Legend:
[1] = test system: animal model treated with MK-801 in wild-type mice; test: pre-pulse suppression (startle response) test in MK-801 treated animal model; assay type: in vivo, mouse; conditions: wild-type mice treated with MK-801 and then rilmenidine intraperitoneally, FIG. 2
Experimental: The startle response was confirmed in an animal model treated with MK-801 in wild-type mice. Mice were divided into groups, and 0.9% physiological saline (saline solution), rilmenidine, or a positive control drug (aripiprazole) was intraperitoneally administered to each group. Then, sensorimotor gating was evaluated through a pre-wave suppression test (converted using Equation 1). […] Pre-pulse suppression (%)=100−[(startle response to pre-stimulus+stimulus)/(startle response to stimulus)]*100 [Equation 1] Confirmation of Cognitive Improvement Effect of Rilmenidine

[2] = test system: animal model treated with MK-801 in wild-type mice; test: novel object recognition test in MK-801 treated animal model; assay type: in vivo, mouse; conditions: wild-type mice treated with MK-801 and then rilmenidine (0.3 mg/kg), test 24 hours after training, FIG. 3
Experimental: The cognitive improvement effect of rilmenidine was confirmed using an animal model treated with MK-801 in wild-type mice. The experiment was a novel object recognition test, where two identical objects were placed in the same location and trained, and 24 hours later, one identical object (familiar) and the other new object (novel) were put in, and the cognitive ability of the animal was tested by evaluating whether they could distinguish between familiar and new objects.

[3] = test system: animal model lacking Cntnap2; test: three-chamber test, social preference (novel vs familiar mouse) in Cntnap2-deficient autism animal model; assay type: in vivo; conditions: Cntnap2-deficient mice treated with rilmenidine, FIG. 5
Experimental: To confirm the therapeutic effect of rilmenidine on social deficits, one of the phenotypes of developmental disorders, a three-chamber test was performed using an animal model lacking Cntnap2. FIG. 5 is a result of evaluating whether or not the time spent with a novel mouse is longer than that of a familiar mouse after exploring a stimulus mouse (familiar) for 10 minutes in the experimental animal, and after adding a new stimulus mouse (novel) together for 10 minutes. In this case, the old mouse is called familiar, and the new mouse is called novel. […] Experimental results were expressed as a preference index by measuring the time the test mouse explores each mouse or the sniffing time to each mouse. The higher the preference index, the more time spent with the novel mouse than with the familiar mouse, or the more time spent sniffing with the novel mouse than with the familiar mouse. […] Through this, it was confirmed that rilmenidine treatment can improve sociability (FIG. 5).

[4] = test system: Fmr1-deficient animal model; test: three-chamber test, sociability in fragile X syndrome animal model; assay type: in vivo; conditions: rilmenidine intraperitoneally (1 mg/kg / 50 ug/kg printed), 30 minutes after administration, FIG. 1
Experimental: Purchased a 5-week-old Fmr 1 knockout mouse (Jackson Laboratory, USA) weighing about 22 g to 24 g, and acclimatized to an environment with a temperature of 23±2° C. and humidity of 55±10% and a light-dark cycle of 12 hours while allowing them to freely consume water and feed. After breeding (Konkuk University Laboratory Animal Center), they were used for experiments. For all animals, wild-type (WT) with normal FMRP expression and male KO mice lacking FMRP (Fragile X mental retardation protein) expression (which induces Fragile X Syndrome (FXS)) were used. Dosing and experiments were performed according to the age of the week. Dosing was performed at the same time. Behavioral experiments were conducted 30 minutes after administration. It was divided into groups administered with 1 mg/kg each of rilmenidine (Sigma Aldrich) in FMRP expression-deficient knock-out (Knock-Out) mice, wild-type (Wild Type) mice, and 0.25 DMSO in FMRP expression-deficient knock-out mice (6 mice per group). For the drug administration group, rilmenidine was dissolved in 0.25% DMSO and then administered intraperitoneally at a dose of 50 ug/kg. Meanwhile, 0.25% DMSO was intraperitoneally administered to the control group. […] The time the test mouse explored each stimulus mouse was measured and expressed as %.

[5] = test system: animal model lacking Cntnap2; test: three-chamber test, sociability index in Cntnap2-deficient autism animal model; assay type: in vivo, mouse; conditions: Cntnap2-deficient mice treated with rilmenidine, FIG. 4
Experimental: To confirm the therapeutic effect of rilmenidine on social deficits, one of the phenotypes of developmental disorders, a three-chamber test was performed using an animal model lacking Cntnap2. The sociability index of FIG. 4 represents a value obtained by dividing stranger (retention time for a mouse) by empty (retention time for an empty space).

## C1COC(NC(C2CC2)C2CC2)=N1 [rilmenidine, N-(dicyclopropylmethyl)-4,5-dihydro-1,3-oxazol-2-amine]
[1]
  pre-pulse suppression: the reduced pre-pulse suppression was restored
[2]
  ability to distinguish novel object from familiar object (cognitive improvement): the ability to distinguish novel objects was improved
[3]
  preference index: sniffing time to novel mouse vs familiar mouse: sniffed more
  preference index: time spent with novel mouse vs familiar mouse: spent more time
[4]
  time the test mouse explored novel vs familiar stimulus mouse (sociability): more time was spent with the novel mouse than with the familiar mouse
[5]
  sociability index: retention time for mouse (stranger) vs empty space: the retention time for the mouse was longer than the retention time for the empty space

From patent US12396983B2, “Composition comprising rilmenidine compound as active ingredient for treatment of fragile X syndrome or related developmental disability” (NEUROVENTI, priority 2020, dated 2025)
